From patent US20260049077A1, “Neurotrophic Receptor Tyrosine Kinase (NTRK) Inhibitors and Methods Using Same” (Baylor College of Medicine, priority 2022, published 2026)
Like-named read-outs stand apart in the source and are kept apart here.

Experiments:
[1] = target: T1, NTRK2 (Homo sapiens (Human), UniProt Q16620); test: NTRK2 inhibition (IC50); assay type: biochemical
[2] = mouse, microsomes
[3] = target: T1, NTRK2; test: NTRK2 apparent inhibition constant (Ki app)
[4] = human, microsomes
[5] = target: T1, NTRK2; test: Promega NTRK2 NanoBRET live-cell target engagement; assay type: cell-based; details: live cells
Excerpt: FIGS. 6A-6B show the live-cell engagement (FIG. 6A) concept and an NTRK2 example (FIG. 6B). FIG. 6A: Depiction of Promega's NanoBRET target engagement system as per their website. The system involves cell-based competitive displacement of a fluorescent NanoBRET tracer bound reversibly to a NanoLuc fusion protein. Test compounds displace the tracer dependent on their affinity for the target and […] the NanoBRET signal. FIG. 6B: Example of the use of Promega's NTRK2 NanoBRET cell-based system. Each NTRK2 compound (Cpd) was assayed in kinase assays and in cells. Multiple NTRK2 compounds enter the cell and are potent nanomolar inhibitors in these assays (% normalized to no Cpd).
As described elsewhere herein, hit compounds, including but not limited to CDD-2262, and its smaller analog, CDD-2330, were synthesized off-DNA and evaluated for NTRK2 activity.

[6] = Metabolic stability in mouse liver microsomes (MLM)
[7] = test system: PTGS2 mRNA in endometriotic stromal cells; test: PGE2-stimulated PTGS2 gene expression in endometriotic stromal cells (RT-PCR); assay type: cell-based; details: 1 μM PGE2, 6-hour period
Excerpt: FIG. 12A: estrogen, secreted by the ovary and endometriotic lesions, signals to macrophages and nerve fibers, including production of BDNF/NT-3 and pro-inflammatory cytokines, respectively. […] Activated CREB acts on the PTGS2 promoter, creating a positive feedback mechanism that results in elevated inflammation. PGE2 signaling also stimulates PKA/PKC signaling to induce the production of BDNF and NTF3 expression. […] Gene expression of PTGS2 was quantified using quantitative real time PCR (RT-PCR).
Thus, the present disclosure provides evidence that administration of CDD-2330 results in suppression of markers associated with inflammation, and accordingly, is suitable for the treatment of endometriosis.

[8] = Metabolic stability in mouse and human liver microsomes; assay type: in vitro ADME; details: mouse and human liver microsomes in vitro
[9] = Metabolic stability in human liver microsomes (HLM)

T1 sequence (Q16620 32-822): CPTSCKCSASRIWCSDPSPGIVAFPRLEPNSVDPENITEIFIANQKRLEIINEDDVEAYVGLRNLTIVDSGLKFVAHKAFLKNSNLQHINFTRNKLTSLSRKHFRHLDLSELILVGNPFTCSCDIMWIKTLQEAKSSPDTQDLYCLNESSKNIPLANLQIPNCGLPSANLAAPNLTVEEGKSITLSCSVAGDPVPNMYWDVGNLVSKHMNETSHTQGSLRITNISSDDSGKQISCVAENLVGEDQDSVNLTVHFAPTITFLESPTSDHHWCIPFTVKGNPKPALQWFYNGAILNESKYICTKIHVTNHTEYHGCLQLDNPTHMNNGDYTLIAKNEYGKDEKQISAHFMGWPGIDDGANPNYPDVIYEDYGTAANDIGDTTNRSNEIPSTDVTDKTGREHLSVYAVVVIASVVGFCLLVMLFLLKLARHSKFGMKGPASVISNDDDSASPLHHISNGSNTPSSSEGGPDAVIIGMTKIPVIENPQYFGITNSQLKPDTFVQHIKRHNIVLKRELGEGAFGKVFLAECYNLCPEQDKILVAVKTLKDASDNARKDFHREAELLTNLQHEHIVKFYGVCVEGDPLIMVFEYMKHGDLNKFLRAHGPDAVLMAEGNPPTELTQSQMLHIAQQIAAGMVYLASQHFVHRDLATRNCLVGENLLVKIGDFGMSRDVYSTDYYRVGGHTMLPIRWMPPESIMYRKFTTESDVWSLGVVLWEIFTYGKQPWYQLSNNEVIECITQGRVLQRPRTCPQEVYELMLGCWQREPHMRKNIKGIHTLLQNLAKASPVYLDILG

Row | Compound | IC50 [1] | MLM t1/2 [2] | Ki ([3]; read-out: NTRK2 Ki^app, apparent inhibition constant) | HLM t1/2 [4] | cell penetration and effect in NanoBRET assays [5] | half-life [6] | concentration at which PTGS2 mRNA is statistically suppressed [7] | Ki [3] | half-life [8] | half-life [9]
1 | 1-cyclobutyl-1-(pyrazolo[1,5-a]pyridin-5-ylmethyl)-3-(4-(trifluoromethoxy)phenyl)urea [CDD-2219] | 13 nM | 28.2 min | 21 ± 7 nM | 54.8 min | able to penetrate cell membranes to induce an effect | – | – | – | – | –
2 | O=C(O)c1cnn2ccc(CN(C(=O)Nc3ccc(OC(F)(F)F)cc3)C3CCC3)cc12 [CDD-2262, 5-((1-cyclobutyl-3-(4-(trifluoromethoxy)phenyl)ureido)methyl)pyrazolo[1,5-a]pyridine-3-carboxylic acid] | 32 nM | – | – | – | able to penetrate cell membranes to induce an effect | 532 min | > 100 nM | 17 ± 10 nM | > 420 min | 442 min
